Test results reported in PubChem BioAssay (NCI).
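Results reflect a 48-hour exposure of cells in 96-well plates to compound at five concentrations. The concentration for 50% growth inhibition is given as GI50. At the TGI there is no net growth.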

Key:
Experiment in all cases: NCI anticancer screen, dose series, 48 h
[1] = tested on: SK-OV-3 ovarian
[2] = tested on: SK-MEL-2 melanoma
[3] = tested on: SF-268 CNS
[4] = tested on: CAKI-1 renal
[5] = tested on: SK-MEL-5 melanoma
[6] = tested on: NCI-H522 lung
[7] = tested on: NCI/ADR-RES ovarian
[8] = tested on: T-47D breast
[9] = tested on: MDA-MB-435
[10] = tested on: MDA-MB-231 breast

SMILES | TGI [1] [µM] | TGI [2] [µM] | TGI [3] [µM] | TGI [4] [µM] | TGI [5] [µM] | GI50 [1] [µM] | GI50 [6] [µM] | TGI [6] [µM] | GI50 [2] [µM] | GI50 [3] [µM] | GI50 [4] [µM] | GI50 [7] [µM] | TGI [7] [µM] | GI50 [5] [µM] | GI50 [8] [µM] | TGI [8] [µM] | GI50 [9] [µM] | TGI [9] [µM] | GI50 [10] [µM] | TGI [10] [µM]
COc1ccc(/C=N/NS(=O)(=O)c2ccccc2)cc1 | > 100 | > 100 | > 100 | > 100 | > 100 | – | – | – | – | – | – | – | – | – | – | – | – | – | – | –
CCc1ccc2c(c1)N(CCO)C1=C(C(=O)OC1)C2c1cc(OC)c(OC)c(OC)c1 (stereo not drawn) | – | 0.469 | > 19.8 | > 50 | 0.581 | 0.169 | 0.0837 | 0.26 | 0.143 | 0.3 | 0.599 | 0.974 | 6.65 | 0.126 | – | – | – | – | – | –
COc1ccc2c(c1OC)O/C(=C\c1ncc([N+](=O)[O-])n1C)C2=O | 9.1 | 1.72 | 6.39 | 2.46 | 2.35 | 2.71 | 1.36 | 3.48 | 0.681 | 1.36 | 0.376 | 1.72 | 7.87 | 0.905 | > 70.9 | > 100 | 0.277 | 1.11 | 1.37 | 5.32
Cc1ccc(C2CC(c3ccc(Nc4ccnc5cc(Cl)ccc45)cc3)=NN2C=O)cc1 (stereo not drawn) | > 100 | – | > 100 | > 100 | > 100 | > 100 | – | – | – | 8.61 | > 100 | 5.22 | > 100 | 1.74 | 1.65 | > 100 | 1.95 | > 100 | 6.09 | > 100
CCCCC1(C(NC(=O)c2ccccc2Cl)c2ccncc2)C(=O)N(c2ccccc2)N(c2ccccc2)C1=O (stereo not drawn) | > 100 | > 100 | > 100 | – | 60 | – | – | > 100 | – | – | – | – | – | – | – | – | – | – | – | –
CN(C)c1ccc(C(O)C2=CC(=O)c3ccccc3C2=O)cc1 (stereo not drawn) | 15.5 | 11.7 | > 100 | 32.1 | – | 3.07 | 2.82 | 9.2 | 2.88 | > 100 | 7.87 | > 100 | > 100 | – | – | – | 5.94 | 28 | – | –
CC(=O)Oc1cc2cnc3c4cc(OC(C)=O)c(OC(C)=O)cc4ccc3c2cc1OC(C)=O | > 100 | 79.9 | 17.6 | > 100 | – | 4.32 | 0.392 | 4.56 | 4.5 | 1.22 | 0.611 | 1.88 | > 100 | – | 0.898 | > 100 | 0.506 | > 100 | 1.02 | > 100
O=C(O)CCCCC1CCSS1 (stereo not drawn) | – | > 100 | > 100 | > 100 | > 100 | – | – | > 100 | – | – | – | – | > 100 | – | – | > 100 | – | > 100 | – | > 100
Cc1cc(S(N)(=O)=O)c(S/C(=N\NS(=O)(=O)c2ccccc2)c2ccc(Cl)cc2)cc1Cl | > 100 | – | > 100 | > 100 | > 100 | > 100 | 23.2 | 87.7 | – | > 100 | > 100 | > 100 | > 100 | 67.9 | > 100 | > 100 | > 100 | > 100 | > 100 | > 100
C=C1CC[C@H]2C(C)=CC[C@H]3C(=C)C(=O)O[C@@H]3[C@@H]12 | > 100 | > 100 | – | > 100 | > 100 | – | – | > 100 | – | – | – | – | > 100 | – | – | > 100 | – | > 100 | – | > 100
Cc1ccc(OC(=O)N2C/C(=C\c3ccccc3)C(=O)/C(=C/c3ccccc3)C2)cc1 | 86.2 | > 100 | 98.5 | > 100 | > 57.3 | – | – | 33.8 | – | – | – | – | – | – | – | > 100 | – | – | – | 70.2
Cn1cnnc1[S-].[Au+].c1ccc([PH+](c2ccccc2)c2ccccc2)cc1 | – | 3.17 | 3.44 | 2.82 | 2.91 | – | – | – | 1.6 | 1.7 | 1.5 | – | – | 1.46 | – | – | 1.57 | 2.98 | 1.67 | 3.08
O=C(O)c1ccccc1NCn1c(=S)sc2ccccc21 | > 100 | > 100 | > 100 | > 100 | – | – | – | 78.3 | – | – | – | – | > 100 | – | – | > 100 | – | > 100 | – | > 100
COc1cc(-c2nn(-c3cccc(NC(=O)CCN4CCN(c5ccccc5)CC4)c3)cc2-c2ccncc2)ccc1Cl | > 100 | 6.85 | > 100 | – | 5.36 | 4.27 | 2.43 | 9.69 | 2.45 | 3.56 | – | 3.18 | > 100 | 2.19 | 2.09 | > 100 | 2.57 | 13 | 2.28 | 7.91
COc1cc2c(c(OC)c1OC)C(=O)NCCC2 | > 100 | > 100 | > 100 | > 100 | > 100 | – | – | > 100 | – | – | – | – | > 100 | – | – | – | – | – | – | –
COc1cc(N(C)C)c(OC)cc1C=C1C=CC=C1 | > 100 | > 100 | > 100 | – | > 100 | – | – | – | – | – | – | – | > 100 | – | – | > 100 | – | > 100 | – | > 100
COc1cc(-c2nn(-c3cccc(NC(=O)CCNc4ccc(N5CCOCC5)cc4)c3)cc2-c2ccncc2)ccc1Cl | > 100 | 5.64 | > 100 | – | 4.89 | 5.02 | 2.52 | 9.82 | 2.07 | 4.42 | – | 4.09 | > 100 | 1.95 | 1.99 | 7.91 | 2.41 | 7.28 | 2.05 | 7.18
Cc1ccc(S(=O)C(C)C(Cl)c2ccccc2)cc1 (stereo not drawn) | > 100 | > 100 | > 100 | > 100 | > 100 | – | – | > 100 | – | – | – | – | – | – | – | – | – | – | – | –
